In US20250276989A1, “GPR40 AGONISTS” (Kallyope, Inc., priority 2020, published 2025):

System: not listed separately
Experiment: In vivo plasma levels in mice
Conditions: male C57BL/6J mice, 30 mg/kg oral gavage, 2 h post-dose; total exposure x free fraction from plasma protein binding
Method: Male C57BL/6J mice 10-12 weeks old were dosed with test article (30 mg/kg) or vehicle by oral gavage. Animals were euthanized with carbon dioxide at 2 h or 5 h post dose. Blood was collected for measurement of plasma concentrations of test article. Unbound exposure was calculated by multiplying the measured total exposure by the free fraction as assessed from plasma protein binding.
Plasma protein binding to isotonic phosphate buffer (PBS) containing 10% C57 BL/6 mouse plasma was determined using equilibrium dialysis of plasma spiked with test article (2 μM) against a dialysis buffer (100 mM sodium phosphate and 150 mM NaCl). At the end of the dialysis (4 hr), aliquots of the plasma and buffer were processed by protein precipitation for LC-MS/MS analysis to quantitate the test article.
Results for exemplary compounds (total exposure in plasma and unbound exposure in plasma; ratio of EC50 to unbound exposure in plasma) are shown in Table 2.

| Compound | Exposure (nM) (unbound), unbound exposure in plasma |
| --- | --- |
| COc1ccc(F)c([C@H]2CC[C@H](COc3cccc(C(CP(C)(=O)O)C4CC4)c3)CC2)c1 (single isomer, unassigned) [Compound 5, (2-cyclopropyl-2-(3-(((trans)-4-(2-fluoro-5-methoxyphenyl)cyclohexyl)methoxy)phenyl)ethyl)(methyl)phosphinic acid] | 2.5 |

Same assay, conditions: male C57BL/6J mice, 30 mg/kg oral gavage, 5 h post-dose; total exposure x free fraction from plasma protein binding

| Compound | Exposure (nM) (unbound), unbound exposure in plasma |
| --- | --- |
| COc1ccc(F)c([C@H]2CC[C@H](COc3cc([C@@H](CP(C)(=O)O)C4CC4)ccn3)CC2)c1 [Compound 9, ((S)-2-cyclopropyl-2-(2-(((trans)-4-(2-fluoro-5-methoxyphenyl)cyclohexyl)methoxy)pyridin-4-yl)ethyl)(methyl)phosphinic acid] | 2.3 |

Same assay, conditions: mouse, plasma; male C57BL/6J mice, 30 mg/kg oral gavage, 2 h post-dose; read-out: Exposure (nM), total exposure in plasma

| Compound | concentration at 2 h [nM] |
| --- | --- |
| COc1ccc(F)c([C@H]2CC[C@H](COc3cccc(C(CP(C)(=O)O)C4CC4)c3)CC2)c1 (single isomer, unassigned) [Compound 5, (2-cyclopropyl-2-(3-(((trans)-4-(2-fluoro-5-methoxyphenyl)cyclohexyl)methoxy)phenyl)ethyl)(methyl)phosphinic acid] | 8300 |

Same assay, conditions: mouse, plasma; male C57BL/6J mice, 30 mg/kg oral gavage, 5 h post-dose; read-out: Exposure (nM), total exposure in plasma

| Compound | concentration at 5 h [nM] |
| --- | --- |
| COc1ccc(F)c([C@H]2CC[C@H](COc3cc([C@@H](CP(C)(=O)O)C4CC4)ccn3)CC2)c1 [Compound 9, ((S)-2-cyclopropyl-2-(2-(((trans)-4-(2-fluoro-5-methoxyphenyl)cyclohexyl)methoxy)pyridin-4-yl)ethyl)(methyl)phosphinic acid] | 1160 |

Molecular target: T1, human GPR40 (Homo sapiens, UniProt O14842)
T1 construct: host or cells: CHO-K1
Experiment: Inositol phosphate accumulation assay (IP1 HTRF) in CHO-K1 cells expressing human GPR40
Type: cell-based
Conditions: 90 min stimulation
Method: CHO-K1 cells expressing human GPR40 were purchased from DiscoverX (95-1005C2). HEK293 cells expressing mouse FFAR1 were prepared using a mouse FFAR1 carrying plasmid purchased from OriGene Technologies (MR222997). The cells were transfected using Lipofectamine 2000 using manufacturer instructions and stable cell line was established from a single cell using geneticine selection. Assay ready frozen (ARF) cells were prepared and used throughout the study.
The assay was performed in a 384-well plate format using IP1 assay kit from Cis-Bio. ARF cells expressing FFAR1 (mouse and human) were thawed, washed and then plated in the appropriate medium (F12 based medium for CHO hFFAR1 and DMEM based medium for HEK293 mFFAR1—both were supplemented with 10% FBS and penicillin/streptomycin). 20 μL of 3.5×10^5 cells/mL were plated on a Poly D-Lysine coated 384-well white plate. The cells were then incubated for 16 hr at 37° C./5% CO2. After 16 hr the medium was removed and 15 μL of stimulation buffer containing the test compounds was added to the cells. The plates were then incubated for 90 min at 37° C./5% CO2. 5 μL of detection buffer (prepared as described in the IP-one kit) was added to each well and the plates were incubated at RT for 1 hr.
[…] was measured using ClarioSTAR plate reader, calculating the ratio between emissions at 665 nm and 620 nm (HTRF ratio). HTRF ratio for positive (Max) and negative (Min) controls were used to normalize HTRF data and generate values for % activity. EC50 and Max activity values were determined using a standard 4-parameter fit.

T1 sequence (O14842 whole entry): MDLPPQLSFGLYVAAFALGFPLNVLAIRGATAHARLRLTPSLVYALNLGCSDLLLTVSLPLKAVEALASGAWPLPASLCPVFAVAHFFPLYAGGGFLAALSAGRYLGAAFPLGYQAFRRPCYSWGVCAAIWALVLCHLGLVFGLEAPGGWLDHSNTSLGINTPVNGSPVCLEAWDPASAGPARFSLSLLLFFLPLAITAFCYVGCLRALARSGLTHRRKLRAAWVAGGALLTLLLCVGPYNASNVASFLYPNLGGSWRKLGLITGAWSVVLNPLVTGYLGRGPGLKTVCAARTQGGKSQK

| Compound | EC50 [nM] |
| --- | --- |
| COc1ccc(F)c([C@H]2CC[C@H](COc3cccc(C(CP(C)(=O)O)C4CC4)c3)CC2)c1 (single isomer, unassigned) [Compound 5, (2-cyclopropyl-2-(3-(((trans)-4-(2-fluoro-5-methoxyphenyl)cyclohexyl)methoxy)phenyl)ethyl)(methyl)phosphinic acid] | ≤ 50 |
| COc1ccc(F)c([C@H]2CC[C@H](COc3cccc(C(CP(C)(=O)O)C4CC4)c3)CC2)c1 (single isomer, unassigned) [Compound 6, (2-cyclopropyl-2-(3-(((trans)-4-(2-fluoro-5-methoxyphenyl)cyclohexyl)methoxy)phenyl)ethyl)(methyl)phosphinic acid] | 50 to 250 |
| COc1ccc(F)c([C@H]2CC[C@H](COc3cccc(C(CP(C)(=O)O)C4CC4)c3)CC2)c1 (single isomer, unassigned) [Compound 7, (2-cyclopropyl-2-(3-(((trans)-4-(2-fluoro-5-methoxyphenyl)cyclohexyl)methoxy)phenyl)ethyl)(methyl)phosphinic acid] | ≤ 50 |
| COc1ccc(F)c([C@H]2CC[C@H](COc3cccc(C(CP(C)(=O)O)C4CC4)c3)CC2)c1 (single isomer, unassigned) [Compound 8, (2-cyclopropyl-2-(3-(((trans)-4-(2-fluoro-5-methoxyphenyl)cyclohexyl)methoxy)phenyl)ethyl)(methyl)phosphinic acid] | 50 to 250 |
| COc1ccc(F)c([C@H]2CC[C@H](COc3cccc(C(CP(=O)(O)OC)C4CC4)c3)CC2)c1 (stereo partly drawn) [Compound 1, methyl hydrogen (2-cyclopropyl-2-(3-(((trans)-4-(2-fluoro-5-methoxyphenyl)cyclohexyl)methoxy)phenyl)ethyl)phosphonate] | 250 to 1000 |
| COc1ccc(F)c([C@H]2CC[C@H](COc3cccc(C(CP(=O)(O)O)C4CC4)c3)CC2)c1 (stereo partly drawn) [Compound 2, (2-cyclopropyl-2-(3-(((trans)-4-(2-fluoro-5-methoxyphenyl)cyclohexyl)methoxy)phenyl)ethyl)phosphonic acid] | > 1000 |
| COc1ccc(F)c([C@H]2CC[C@H](COc3cccc(C(CS(=O)(=O)O)C4CC4)c3)CC2)c1 (stereo partly drawn) [Compound 3, 2-cyclopropyl-2-(3-(((trans)-4-(2-fluoro-5-methoxyphenyl)cyclohexyl)methoxy)phenyl)ethanesulfonic acid] | > 1000 |
| COc1ccc(F)c([C@H]2CC[C@H](COc3cccc(C(C4CC4)C(C)P(=O)(O)O)c3)CC2)c1 (stereo partly drawn) [Compound 4, (1-cyclopropyl-1-(3-(((trans)-4-(2-fluoro-5-methoxyphenyl)cyclohexyl)methoxy)phenyl)propan-2-yl)phosphonic acid] | > 1000 |
| COc1ccc(F)c([C@H]2CC[C@H](COc3cc([C@@H](CP(C)(=O)O)C4CC4)ccn3)CC2)c1 [Compound 9, ((S)-2-cyclopropyl-2-(2-(((trans)-4-(2-fluoro-5-methoxyphenyl)cyclohexyl)methoxy)pyridin-4-yl)ethyl)(methyl)phosphinic acid] | ≤ 50 |
| COc1ccc(CCCC(C)(C)C)c(N2CCC(COc3cccc([C@@H](CP(C)(=O)O)C4CC4)c3)CC2)c1 [Compound 10, ((S)-2-cyclopropyl-2-(3-((1-(2-(4,4-dimethylpentyl)-5-methoxyphenyl)piperidin-4-yl)methoxy)phenyl)ethyl)(methyl)phosphinic acid] | ≤ 50 |
| COc1ccc(CCCC(C)(C)C)c(N2CCC(COc3cc([C@@H](CP(C)(=O)O)C4CC4)ccn3)CC2)c1 [Compound 11, ((S)-2-cyclopropyl-2-(2-((1-(2-(4,4-dimethylpentyl)-5-methoxyphenyl)piperidin-4-yl)methoxy)pyridin-4-yl)ethyl)(methyl)phosphinic acid] | ≤ 50 |
| COc1ccc(CCCC(C)(C)C)c(N2CCC(COc3cc([C@@H](C)CP(C)(=O)O)ccn3)CC2)c1 [Compound 12, ((R)-2-(2-((1-(2-(4,4-dimethylpentyl)-5-methoxyphenyl)piperidin-4-yl)methoxy)pyridin-4-yl)propyl)(methyl)phosphinic acid] | ≤ 50 |
| COc1ccc(CCCC(C)(C)C)c(N2CCC(COc3cc([C@H](C)CP(C)(=O)O)ccn3)CC2)c1 [Compound 13, ((S)-2-(2-((1-(2-(4,4-dimethylpentyl)-5-methoxyphenyl)piperidin-4-yl)methoxy)pyridin-4-yl)propyl)(methyl)phosphinic acid] | 250 to 1000 |
| COc1ccc(CCCC(C)(C)C)c(N2CCC(COc3cccc([C@@H](C)CP(C)(=O)O)c3)CC2)c1 [Compound 14, ((R)-2-(3-((1-(2-(4,4-dimethylpentyl)-5-methoxyphenyl)piperidin-4-yl)methoxy)phenyl)propyl)(methyl)phosphinic acid] | 50 to 250 |
| COc1ccc(CCCC(C)(C)C)c(N2CCC(COc3cccc([C@H](C)CP(C)(=O)O)c3)CC2)c1 [Compound 15, ((S)-2-(3-((1-(2-(4,4-dimethylpentyl)-5-methoxyphenyl)piperidin-4-yl)methoxy)phenyl)propyl)(methyl)phosphinic acid] | ≤ 50 |
| COc1ccc(CCCC(C)(C)C)c(N2CCC(COc3cccc(CC(C)P(=O)(O)O)c3)CC2)c1 (stereo not drawn) [Compound 16, (1-(3-((1-(2-(4,4-dimethylpentyl)-5-methoxyphenyl)piperidin-4-yl)methoxy)phenyl)propan-2-yl)phosphonic acid] | > 1000 |
| CC[C@H](Cc1cccc(OCC2CCN(c3cc(OC)ccc3CCCC(C)(C)C)CC2)c1)P(C)(=O)O [Compound 17, ((R)-1-(3-((1-(2-(4,4-dimethylpentyl)-5-methoxyphenyl)piperidin-4-yl)methoxy)phenyl)butan-2-yl)(methyl)phosphinic acid] | 250 to 1000 |
| CC[C@@H](Cc1cccc(OCC2CCN(c3cc(OC)ccc3CCCC(C)(C)C)CC2)c1)P(C)(=O)O [Compound 18, ((S)-1-(3-((1-(2-(4,4-dimethylpentyl)-5-methoxyphenyl)piperidin-4-yl)methoxy)phenyl)butan-2-yl)(methyl)phosphinic acid] | 250 to 1000 |
| COc1ccc(CCCC(C)(C)C)c(N2CCC(COc3cccc([C@H](C)CP(=O)(O)O)c3)CC2)c1 [Compound 19, (S)-(2-(3-((1-(2-(4,4-dimethylpentyl)-5-methoxyphenyl)piperidin-4-yl)methoxy)phenyl)propyl)phosphonic acid] | 250 to 1000 |
| COc1ccc(CCCC(C)(C)C)c(N2CCC(COc3cccc([C@@H](C)CP(=O)(O)O)c3)CC2)c1 [Compound 20, (R)-(2-(3-((1-(2-(4,4-dimethylpentyl)-5-methoxyphenyl)piperidin-4-yl)methoxy)phenyl)propyl)phosphonic acid] | > 1000 |
